The source made the active and inactive calls. The rule behind the calls is not given here.

This series deals with CCRIS mutagenicity, Ames/micronucleus/aberration tests. Put plainly: CCRIS mutagenicity studies. The note with it: Test System: AMES SALMONELLA TYPHIMURIUM
[1] abbreviates: Strain/Indicator: TA98, Metabolic Activation: NONE, Method: PREINCUBATION
[2] abbreviates: Strain/Indicator: TA98, Metabolic Activation: NONE, Method: STANDARD PLATE.
The mark [3] stands for this setting: Strain/Indicator: TA98, Metabolic Activation: S-9, Method: STANDARD PLATE.
The mark [4] stands for this setting: Strain/Indicator: TA100, Metabolic Activation: NONE, Method: STANDARD PLATE.
Setting [5] is: Strain/Indicator: TA100, Metabolic Activation: S-9, Method: STANDARD PLATE.
Where [6] appears, read: Strain/Indicator: TA1535, Metabolic Activation: NONE, Method: PREINCUBATION
Where [7] appears, read: Strain/Indicator: TA1535, Metabolic Activation: NONE, Method: STANDARD PLATE.
Setting [8] is: Strain/Indicator: TA1537, Metabolic Activation: NONE, Method: STANDARD PLATE.

As to `Cc1ccc(C)o1`, the mutagenic call (Strain/Indicator: TA97, Metabolic Activation: HAMSTER, LIVER, S-9, AROCLOR 1254 (10%), Method: PREINCUBATION) was “inactive; negative”; the mutagenic call (Strain/Indicator: TA97, Metabolic Activation: HAMSTER, LIVER, S-9, AROCLOR 1254 (30%), Method: PREINCUBATION) was “inactive; negative”; the mutagenic call (Strain/Indicator: TA97, Metabolic Activation: NONE, Method: PREINCUBATION) was “inactive; negative”; the mutagenic call (Strain/Indicator: TA97, Metabolic Activation: RAT, LIVER, S-9, AROCLOR 1254 (10%), Method: PREINCUBATION) is “inactive; negative”; the mutagenic call (Strain/Indicator: TA97, Metabolic Activation: RAT, LIVER, S-9, AROCLOR 1254 (30%), Method: PREINCUBATION) is “inactive; negative”; the mutagenic call (Strain/Indicator: TA98, Metabolic Activation: HAMSTER, LIVER, S-9, AROCLOR 1254 (10%), Method: PREINCUBATION) was “inactive; negative”. In addition, the mutagenic call is, setting by setting: (Strain/Indicator: TA98, Metabolic Activation: HAMSTER, LIVER, S-9, AROCLOR 1254 (30%), Method: PREINCUBATION) “inactive; negative”; under setting [1], “inactive; negative”; under setting [2], “inactive; negative”; (Strain/Indicator: TA98, Metabolic Activation: RAT, LIVER, S-9, AROCLOR 1254 (10%), Method: PREINCUBATION) “inactive; negative”; (Strain/Indicator: TA98, Metabolic Activation: RAT, LIVER, S-9, AROCLOR 1254 (30%), Method: PREINCUBATION) “inactive; negative”; under setting [3], “inactive; negative”. Further, the mutagenic call is “inactive; negative” (Strain/Indicator: TA100, Metabolic Activation: HAMSTER, LIVER, S-9, AROCLOR 1254 (10%), Method: PREINCUBATION); “inactive; negative” (Strain/Indicator: TA100, Metabolic Activation: HAMSTER, LIVER, S-9, AROCLOR 1254 (30%), Method: PREINCUBATION); “inactive; negative” (Strain/Indicator: TA100, Metabolic Activation: NONE, Method: PREINCUBATION); “inactive; negative” under setting [4]; “inactive; negative” (Strain/Indicator: TA100, Metabolic Activation: RAT, LIVER, S-9, AROCLOR 1254 (10%), Method: PREINCUBATION); “inactive; negative” (Strain/Indicator: TA100, Metabolic Activation: RAT, LIVER, S-9, AROCLOR 1254 (30%), Method: PREINCUBATION). Also, the mutagenic call under setting [5] was “inactive; negative”; the mutagenic call (Strain/Indicator: TA1535, Metabolic Activation: HAMSTER, LIVER, S-9, AROCLOR 1254 (10%), Method: PREINCUBATION) was “inactive; negative”; the mutagenic call (Strain/Indicator: TA1535, Metabolic Activation: HAMSTER, LIVER, S-9, AROCLOR 1254 (30%), Method: PREINCUBATION) was “inactive; negative”; the mutagenic call under setting [6] is “inactive; negative”; the mutagenic call (Strain/Indicator: TA1535, Metabolic Activation: RAT, LIVER, S-9, AROCLOR 1254 (10%), Method: PREINCUBATION) is “inactive; negative”; the mutagenic call (Strain/Indicator: TA1535, Metabolic Activation: RAT, LIVER, S-9, AROCLOR 1254 (30%), Method: PREINCUBATION) was “inactive; negative”.

With `Nc1snc2c(Cl)cc(Cl)cc12`, the mutagenic call under setting [2] was “inactive; negative”; the mutagenic call under setting [3] is “inactive; negative”; the mutagenic call under setting [4] was “inactive; negative”; the mutagenic call under setting [5] is “active; positive”; the mutagenic call under setting [7] was “inactive; negative”; the mutagenic call (Strain/Indicator: TA1535, Metabolic Activation: S-9, Method: STANDARD PLATE) is “inactive; negative”. Further, the mutagenic call runs as follows: under setting [8], “inactive; negative”; (Strain/Indicator: TA1537, Metabolic Activation: S-9, Method: STANDARD PLATE) “active; positive”.

With `O=C(O)c1ccccc1Nc1cc(Cl)ccc1C(=O)O`, the mutagenic call under setting [1] was “inactive; negative”; the mutagenic call under setting [2] is “inactive; negative”; the mutagenic call (Strain/Indicator: TA98, Metabolic Activation: RAT, LIVER, S-9, AROCLOR 1254, Method: PREINCUBATION) is “inactive; negative”; the mutagenic call (Strain/Indicator: TA98, Metabolic Activation: RAT, LIVER, S-9, AROCLOR 1254, Method: STANDARD PLATE) was “inactive; negative”; the mutagenic call under setting [4] was “inactive; negative”; the mutagenic call (Strain/Indicator: TA100, Metabolic Activation: RAT, LIVER, S-9, AROCLOR 1254, Method: STANDARD PLATE) was “inactive; negative”. Moreover, the mutagenic call is, setting by setting: under setting [7], “inactive; negative”; (Strain/Indicator: TA1535, Metabolic Activation: RAT, LIVER, S-9, AROCLOR 1254, Method: STANDARD PLATE) “inactive; negative”; under setting [8], “inactive; negative”; (Strain/Indicator: TA1537, Metabolic Activation: RAT, LIVER, S-9, AROCLOR 1254, Method: STANDARD PLATE) “inactive; negative”; (Strain/Indicator: TA1538, Metabolic Activation: NONE, Method: STANDARD PLATE) “inactive; negative”; (Strain/Indicator: TA1538, Metabolic Activation: RAT, LIVER, S-9, AROCLOR 1254, Method: STANDARD PLATE) “inactive; negative”.

As to `CC[C@@]1(O)C[C@H](O[C@H]2C[C@H](N(C)C)[C@H](O)[C@H](C)O2)c2c(cc3c(c2O)C(=O)c2c(O)ccc(O)c2C3=O)[C@H]1C(=O)OC`, the mutagenic call was “active; positive” (Strain/Indicator: TA102, Metabolic Activation: NONE, Method: STANDARD PLATE); “active; positive” (Strain/Indicator: TA104, Metabolic Activation: NONE, Method: STANDARD PLATE); “active; positive” (Strain/Indicator: TA1537, Metabolic Activation: NONE); “active; positive” (Strain/Indicator: TA1537, Metabolic Activation: RAT, LIVER, S-9, AROCLOR 1254).

Consider `CCOc1ccc([N+](=O)[O-])cc1`, for which the mutagenic call runs as follows: under setting [1], “active; positive”; (Strain/Indicator: TA100(NR), Metabolic Activation: RAT, LIVER, S-9, PCB, Method: PREINCUBATION) “inactive; negative”; under setting [6], “inactive; negative”; (Strain/Indicator: TA1537, Metabolic Activation: NONE, Method: PREINCUBATION) “inactive; negative”; (Strain/Indicator: TA1538, Metabolic Activation: NONE, Method: PREINCUBATION) “inactive; negative”; (Strain/Indicator: YG1026, Metabolic Activation: NONE, Method: PREINCUBATION) “active; positive”. In addition, the mutagenic call is, setting by setting: (Strain/Indicator: YG1029, Metabolic Activation: NONE, Method: PREINCUBATION) “active; positive”; (Strain/Indicator: YG1042, Metabolic Activation: NONE, Method: PREINCUBATION) “active; positive”.

Source of the values: PubChem BioAssay AID1259407 (Chemical Carcinogenesis Research Information System (CCRIS), 2018).
